Laboratory results taken from patent US12491209B2, “Dissolved C60 and method of producing dissolved C60” (Innovation for Success, LLC, priority 2019, dated 2025).
Values after ≈ are worked out from the molar mass of the structure shown. Like-named read-outs stand apart in the source and are kept apart here.

How the values were obtained:
[1] = Solubility of C60 in limonene composition / d-limonene by heating method 200; type: physicochemical
Description: As shown in the flowchart of FIG. 2 and with additional reference to FIG. 3, a method 200 for dissolving C60 304 in a liquid medium that is non-toxic and safe for human consumption includes combining C60 304 with a limonene composition 308 to form a C60 mixture 312. (Block 204). The limonene composition 308 is discussed in connection with the method 200, but the limonene composition 308 may be substituted with orange terpenes or other edible and non-toxic terpenes (or terpene containing liquids). The limonene composition 308 is used over orange terpenes, because the limonene composition 308 has a more pleasant and less bitter taste. In one embodiment, the limonene composition 308 is at least 95% d-limonene by volume, with the remaining 5% including any other liquid, such as limonene, flavoring, fragrances, and the like. In another embodiment, the limonene composition 308 is at least 75% d-limonene with the remaining 25% including any other liquid, such as limonene, flavoring, fragrances, and the like.
At block 204 of the method 200, the C60 304 is pulverized into a powdered form and combined with the liquid limonene composition 308 in a glass vessel (not shown) or any other heat-safe and non-reactive container. Additionally or alternatively, the C60 304 is not pulverized and is added to the limonene composition 308 in granular, chunky, or crystalline state. […]

[2] = cited from earlier work
[3] = C60 molecules diffuse out of the body; cited from earlier work
[4] = per single C60 molecule; cited from earlier work
[5] = tested on: IgE; conditions: animal models, applied topically; cited from earlier work

Solubility Limit ([1]; solvent d-limonene, results achieved by method 200): 16670 µg/mL (≈ 23100 µM)
Compound: c12c3c4c5c1c1c6c7c2c2c8c3c3c9c4c4c%10c5c5c1c1c6c6c%11c7c2c2c7c8c3c3c8c9c4c4c9c%10c5c5c1c1c6c6c%11c2c2c7c3c3c8c4c4c9c5c1c1c6c2c3c41 [C60, Buckminsterfullerene]
dissolution of C60 into the limonene composition without heating ([1]; room temperature 70° F. (21° C.)): does not dissolve to any significant extent
Solubility Limit ([2]; solvent 1,2-dichlorobenzene): 27000 µg/mL (≈ 37500 µM)
Solubility Limit ([2]; solvent 1-chloronaphthalene): 41000 µg/mL (≈ 56900 µM)
Solubility Limit ([2]; solvent 1-methylnaphthalene): 33000 µg/mL (≈ 45800 µM)
Solubility Limit ([2]; solvent acetone): 1 µg/mL (≈ 1.39 µM)
Solubility Limit ([2]; solvent anisole): 5600 µg/mL (≈ 7770 µM)
Solubility Limit ([2]; solvent benzene): 1700 µg/mL (≈ 2360 µM)
Solubility Limit ([2]; solvent benzonitrile): 410 µg/mL (≈ 569 µM)
Solubility Limit ([2]; solvent carbon disulfide): 7900 µg/mL (≈ 11000 µM)
Solubility Limit ([2]; solvent carbon tetrachloride): 447 µg/mL (≈ 620 µM)
Solubility Limit ([2]; solvent chloroform): 160 µg/mL (≈ 222 µM)
Solubility Limit ([2]; solvent cyclohexane): 36 µg/mL (≈ 50 µM)
Solubility Limit ([2]; solvent decalins): 4600 µg/mL (≈ 6380 µM)
Solubility Limit ([2]; solvent dichloromethane): 260 µg/mL (≈ 361 µM)
Solubility Limit ([2]; solvent ethanol): 1.4 µg/mL (≈ 1.94 µM)
Solubility Limit in mg/ml ([2]; solvent isopropanol): ND (“ND” indicates that C60 in insoluble in the identified solvent)
Solubility Limit in mg/ml ([2]; solvent methanol): ND (“ND” indicates that C60 in insoluble in the identified solvent)
Solubility Limit ([2]; solvent n-decane): 71 µg/mL (≈ 98.5 µM)
Solubility Limit ([2]; solvent n-hexane): 43 µg/mL (≈ 59.7 µM)
Solubility Limit ([2]; solvent n-pentane): 5 µg/mL (≈ 6.94 µM)
Solubility Limit ([2]; solvent octanol): 42.9 µg/mL (≈ 59.5 µM)
Solubility Limit ([2]; solvent tetrachloromethane): 320 µg/mL (≈ 444 µM)
Solubility Limit in mg/ml ([2]; solvent tetrahydrofuran): ND (“ND” indicates that C60 in insoluble in the identified solvent)
Solubility Limit ([2]; solvent tetralin): 16000 µg/mL (≈ 22200 µM)
Solubility Limit ([2]; solvent toluene): 2800 µg/mL (≈ 3890 µM)
Solubility Limit ([2]; solvent water): 1.3e-08 µg/mL (≈ 1.8e-08 µM)
Solubility Limit ([2]; solvent xylene): 5200 µg/mL (≈ 7220 µM)
residence time in the body [3]: about five
free electrons / methyl radicals absorbed per C60 molecule [4]: up to thirty-four
IgE reduction [5]: reduce IgE significantly
